Several values for one entry are separate records, joined by “and”; a condition that tells them apart may be missing. Equal entries are not always repeated. Where two headings read alike, the source gives them in different places.

Series [1] can be described thus: Effective AUC from plasma concentration time profile in the PC3 tumour model. It is filed as in vivo, mouse. The following applies: nu/nu, plasma, oral, read-out: ther. AUC (mouse). The procedure:
(§1) The human pharmacokinetic (PK) parameters (Table 9) were predicted based on the in vivo PK parameters obtained for rats (single species scaling), taking into account the interspecies differences in the free fraction (fu) in the plasma. The effective AUC (area under curve) was determined based on the measured plasma concentration time profile for in vivo efficacy in the PC3 tumour model of the mouse (nu/nu mouse).

For the next series, the system named is human PC-3 cells. To be noted: for Deaths / T/C: 2 administrations per day; for T/C: final tumour weight; for tolerability (good: body weight change <=minus 10% and 100% survival): administration 2 times per day. Here is the method: Xenograft models in immunosuppressed mice were used to determine the antitumour activity in living organisms.
Use was made primarily of a prostate carcinoma model with hormone-independent human PC-3 cells in male nude mice (NMRI-nude (nu/nu) mice, Taconic M&B A/S). To this end, 3 million tumour cells (suspended in medium+Matrigel 1:1, final 0.1 ml) were injected subcutaneously into the side of each animal. When the tumours extended to an area of 20-30 mm^2, the mice were randomized into therapy groups and therapy was initiated. […] At this point in time, the experiment was terminated in all groups and the prepared tumours were weighed.
The T/C value was calculated as primary success parameter using the effect on the final tumour weight: mean tumour weight in the treatment group divided by mean of the tumour weight in the vehicle group.
(§2) Administration route: oral
Vehicle: PEG400/ethanol/Solutol HS 15 (70/5/25, v/v/v)
Administration volume: 10 ml/kg
Number of mice: see Table 8

A short description of series [2]: Maximum tolerated dose (MTD) in female nude mice. It is filed as in vivo, mouse. The following applies: for Deaths: 21 days; for MTD at 21 days: female, NMRI-nude (nu/nu), mouse, in vivo, administration once per day. The procedure:
To this end, initially the maximum tolerable dose (MTD) was determined using the following protocol:
The MTD was defined as the highest dose which could be administered without any animal dying during the treatment phase, and without any body weight loss of more than 10% compared to the initial weight.
as §2
• (Solutol HS15: polyoxyethylene ester of 12-hydroxystearic acid) Administration volume: 10 ml/kg: Protocol: see Table 7
The treatment phase was followed by an observation phase of 21 days.

Series [3] in a line: Prediction of human pharmacokinetic parameters and human therapeutic dosage (single species scaling from rat). To be noted: human, plasma; for AUC: read-out: calc. AUC (human); for clearance: predicted (fu-corrected) from rat PK, read-out: pred. CL (human) (converted). The procedure: as §1, with “mouse). The therapeutic human dosage was determined using the predicted human clearance (CL), assuming 100% bioavailability (F=1) and using the effective AUC in the animal model according to the formula below: […]” for “mouse).”

A short description of series [4]: Pharmacokinetic parameters in the rat (i.v. and intragastric). It is filed as in vivo. To be noted: for clearance / Vd / half-life: male, plasma; for clearance: read-out: CLplasma (converted); for Vd: read-out: Vss; for half-life: terminal, read-out: t½ (converted); for F: oral bioavailability. The procedure:
Determination of the Pharmacokinetic Parameters of a Test Substance in the Rat and in the Dog For this, the test substances were applied in dissolved form both for intravenous, and for intragastric application, wherein compatible solubilizers such as PEG400 and/or ethanol were used in a compatible amount. […] Administration was as a bolus injection in the male rat and as an infusion in the female dog (15 min) At various time points after the bolus injection, and before and after the 15-minute infusion, blood samples of about 100-150 μl were removed via a catheter either from the jugular vein (rat) or from the saphenous vein (dog). Lithium-heparin was added as anticoagulant to the blood samples and they were stored in a refrigerator until required for further processing. After centrifugation of the samples for 15 min at 3000 rpm, an aliquot of 100 μl was taken from the supernatant (plasma) and was precipitated by adding 400 μl of cold ACN or methanol (absolute). The precipitated samples were frozen-out at […] overnight, then centrifuged again at 3000 rpm for 15 min, before 150 μl of the clear supernatant were removed to determine the concentration. The analysis was effected by means of an Agilent 1200 HPLC system with connected LCMS/MS detection. Calculation of the PK parameters (using PK calculation software, e.g. WinNonLin®): CLplasma: total plasma clearance of the test substance (in 1*kg/h); CLblood: total blood clearance of the test substance (in 1*kg/h), where (CLblood=CLplasma*Cp/Cb); Vss: apparent steady-state distribution volume (in 1/kg); t½: half-life within a specified interval (here: terminal t½, in h); AUCnorm: area under the plasma concentration time profile from time point zero extrapolated to infinity divided by the dose normalized for body weight (in kg*l/h); AUC(0-tn)norm: integrated area under the plasma concentration time profile from time point zero until the last time point at which a plasma concentration was measurable, divided by the dose normalized for body weight (in kg*l/h); Cmax: maximum concentration of the test substance in the plasma (in μg/l); Cmax,norm: maximum concentration of the test substance in the plasma divided by the dose normalized for body weight (in kg/l); Cb/Cp: ratio of the blood to plasma concentration distribution. […] At various time points after administration, blood samples of about 100-150 μl were removed via a catheter either from the jugular vein (rat) or from the saphenous vein (dog). Lithium-heparin was added as anticoagulant to the blood samples and they were stored in a refrigerator until required for further processing. After centrifugation of the samples for 15 min at 3000 rpm, an aliquot of 100 μl was taken from the supernatant (plasma) and was precipitated by adding 400 μl of cold ACN or methanol (absolute). The precipitated samples were frozen-out at −20° C. overnight, then centrifuged at 3000 rpm for 15 min, before 150 μl of the clear supernatant were removed to determine the concentration. The analysis was effected by means of an Agilent 1200 HPLC system with connected LCMS/MS detection. […]

Series [5] relates to human ACC1. Description: Human ACC1 enzyme assay (ADP-Glo). The following applies: for Ratio IC50s ACC2/ACC1 (respective measurement): pairwise, same dilution series. It is filed as biochemical. Here is the method: (§3) Typical concentrations were in the range of 1.75 μl.
Series [6] concerns the target human ACC1 (Homo sapiens, UniProt Q13085). Put plainly: Human ACC1 enzyme assay (ADP-Glo). It is filed as biochemical. The following applies: individual measurement (measurement no./preparation no. in table); read-out: ACC 1 IC50. Here is the method:
as §3
On the technique in general: ADP-Glo turns the ADP formed in a reaction into a luminescent signal.

The target in a further series is human ACC2 (Homo sapiens (Human), UniProt O00763). Put plainly: Human ACC2 enzyme assay (ADP-Glo). To be noted: read-out: ACC 2 IC50; individual measurement (measurement no./preparation no. in table).
[7] abbreviates: dosage (mouse) 80 mg/kg 2 × per day.
The mark [8] stands for this setting: 100 mg/kg oral, 1 administration per day.
[9] abbreviates: from mouse dosage 80 mg/kg 2 × per day.

Chain of human ACC2 (O00763 27-2458 limits assumed): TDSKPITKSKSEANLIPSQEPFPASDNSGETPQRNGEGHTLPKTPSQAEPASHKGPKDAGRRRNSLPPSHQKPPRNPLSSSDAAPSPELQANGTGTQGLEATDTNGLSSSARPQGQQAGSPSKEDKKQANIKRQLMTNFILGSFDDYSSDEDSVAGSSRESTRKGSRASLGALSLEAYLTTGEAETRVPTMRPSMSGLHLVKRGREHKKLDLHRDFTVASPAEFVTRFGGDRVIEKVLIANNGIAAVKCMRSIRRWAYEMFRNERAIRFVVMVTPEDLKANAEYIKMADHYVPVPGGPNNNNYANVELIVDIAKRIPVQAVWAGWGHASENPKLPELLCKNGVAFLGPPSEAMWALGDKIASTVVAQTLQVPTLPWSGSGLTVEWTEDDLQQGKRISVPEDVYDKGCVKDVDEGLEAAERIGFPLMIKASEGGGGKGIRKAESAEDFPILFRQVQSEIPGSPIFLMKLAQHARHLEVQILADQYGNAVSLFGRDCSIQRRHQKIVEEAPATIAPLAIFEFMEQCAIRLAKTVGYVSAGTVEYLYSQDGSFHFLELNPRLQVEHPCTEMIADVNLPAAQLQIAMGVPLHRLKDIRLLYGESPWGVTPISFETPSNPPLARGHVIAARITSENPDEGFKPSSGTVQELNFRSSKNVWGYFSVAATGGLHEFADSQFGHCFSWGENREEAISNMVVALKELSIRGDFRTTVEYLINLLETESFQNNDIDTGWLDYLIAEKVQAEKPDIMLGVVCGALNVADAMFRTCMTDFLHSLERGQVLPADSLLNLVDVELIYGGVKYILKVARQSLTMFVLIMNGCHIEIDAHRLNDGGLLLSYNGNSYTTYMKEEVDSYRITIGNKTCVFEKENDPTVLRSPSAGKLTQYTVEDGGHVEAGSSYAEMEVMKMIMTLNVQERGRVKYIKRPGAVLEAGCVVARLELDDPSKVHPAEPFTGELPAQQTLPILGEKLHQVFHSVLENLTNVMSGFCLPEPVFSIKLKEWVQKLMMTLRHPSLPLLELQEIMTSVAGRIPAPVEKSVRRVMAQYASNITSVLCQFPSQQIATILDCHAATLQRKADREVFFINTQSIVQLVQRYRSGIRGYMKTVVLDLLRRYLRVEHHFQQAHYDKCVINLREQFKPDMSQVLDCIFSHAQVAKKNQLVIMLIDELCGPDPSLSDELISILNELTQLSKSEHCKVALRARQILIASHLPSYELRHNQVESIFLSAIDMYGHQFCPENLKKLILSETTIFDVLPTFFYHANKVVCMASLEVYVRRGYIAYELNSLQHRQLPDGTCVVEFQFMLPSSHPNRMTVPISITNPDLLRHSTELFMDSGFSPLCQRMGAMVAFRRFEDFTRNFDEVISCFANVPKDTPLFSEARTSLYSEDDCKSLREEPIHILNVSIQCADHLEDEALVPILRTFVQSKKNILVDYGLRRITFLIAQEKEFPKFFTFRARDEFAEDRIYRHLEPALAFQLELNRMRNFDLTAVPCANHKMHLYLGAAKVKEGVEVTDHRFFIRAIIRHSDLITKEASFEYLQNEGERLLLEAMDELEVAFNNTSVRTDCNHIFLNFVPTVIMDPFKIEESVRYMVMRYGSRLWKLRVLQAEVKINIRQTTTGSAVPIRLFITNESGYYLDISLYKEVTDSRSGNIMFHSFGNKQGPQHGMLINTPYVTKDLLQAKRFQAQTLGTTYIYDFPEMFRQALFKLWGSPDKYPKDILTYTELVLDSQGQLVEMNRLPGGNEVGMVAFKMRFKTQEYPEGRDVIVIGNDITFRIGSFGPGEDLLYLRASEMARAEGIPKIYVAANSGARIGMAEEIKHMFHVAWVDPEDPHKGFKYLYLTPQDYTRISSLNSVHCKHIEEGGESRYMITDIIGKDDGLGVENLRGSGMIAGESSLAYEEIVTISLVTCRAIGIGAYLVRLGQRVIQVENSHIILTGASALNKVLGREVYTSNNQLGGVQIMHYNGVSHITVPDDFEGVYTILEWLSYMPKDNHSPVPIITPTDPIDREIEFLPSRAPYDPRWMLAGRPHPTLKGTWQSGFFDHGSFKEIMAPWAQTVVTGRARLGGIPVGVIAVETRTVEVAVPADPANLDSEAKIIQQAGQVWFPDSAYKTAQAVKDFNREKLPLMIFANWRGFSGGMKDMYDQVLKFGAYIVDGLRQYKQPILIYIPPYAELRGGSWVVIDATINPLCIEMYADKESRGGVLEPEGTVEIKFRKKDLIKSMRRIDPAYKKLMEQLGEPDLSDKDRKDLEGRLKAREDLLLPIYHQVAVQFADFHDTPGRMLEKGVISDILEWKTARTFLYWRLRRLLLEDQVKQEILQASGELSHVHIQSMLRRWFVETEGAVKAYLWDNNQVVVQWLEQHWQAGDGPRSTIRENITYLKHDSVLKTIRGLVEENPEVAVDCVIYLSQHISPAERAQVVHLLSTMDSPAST

In the case of `COC[C@]1(OC)CC[C@@]2(CC1)NC(=O)C(c1cc(-c3ccc(Cl)c(F)c3)ccc1C)=C2O` [Example 1-4, (5r,8r)-3-(4′-Chloro-3′-fluoro-4-methylbiphenyl-3-yl)-4-hydroxy-8-methoxy-8-(methoxymethyl)-1-azaspiro[4.5]dec-3-en-2-one], the AUC in series [1] (setting [7]) was 712 µg·h/mL; in series [3] (setting [9]) it was 4130 µg·h/mL. Moreover, the Deaths in the series with human PC-3 cells (80 mg/kg oral, 17 days) is given as 0 of 10; in series [2] (25 mg/kg oral, 2 administrations per day), 0 of 4; in series [2] (50 mg/kg oral, 2 administrations per day), 0 of 4; in series [2] (75 mg/kg oral, 2 administrations per day), 0 of 4; in series [2] (setting [8]), 0 of 4; in series [2] (100 mg/kg oral, 2 administrations per day), 0 of 4. For the same compound, the T/C in the series on human PC-3 cells (80 mg/kg oral, 17 days) stood at 0.29. In the series with human PC-3 cells (80 mg/kg), the “tolerability (good: body weight change <=minus 10% and 100% survival)” value was “good tolerability”. In addition, the MTD entry in series [2] (21-day treatment, administration twice per day, oral) is “higher than 100 mg/kg”. Also, the MTD at 21 days in series [2] (21-day treatment, oral) was more than 100 mg/kg. Also, the clearance was 0.05 mL/min/kg in series [3] and 0.117 mL/min/kg in series [4] (intravenous). The compound further returned a CLblood in series [4] of 0.183 mL/min/kg. Besides, the Vd in series [4] (intravenous) was determined as 0.44 L/kg. Further, the half-life in series [4] was 51 h. In addition, the F in series [4] is given as 83%.

Consider `COC[C@H]1CC[C@]2(CC1)NC(=O)C(c1cc(-c3ccc(Cl)cc3)ccc1C)=C2O` [V.3-b, (5s,8s)-3-(4′-Chloro-4-methylbiphenyl-3-yl)-4-hydroxy-8-(methoxymethyl)-1-azaspiro[4.5]dec-3-en-2-one], for which, in the series on human ACC1 [5], the “Selectivity ACC1 vs. ACC2 (mean of the individual measurements ± standard deviation)” value is 6.4 and the “Ratio IC50s ACC2/ACC1 (respective measurement)” value (shortened to “Ratio IC50s ACC2/ACC1”) came out at 6.4.

As for `COC[C@]1(OC)CC[C@@]2(CC1)NC(=O)C(c1cc(-c3ccc(Cl)cc3)ccc1C)=C2O` [Example 1-3, (5r,8r)-3-(4′-Chloro-4-methylbiphenyl-3-yl)-4-hydroxy-8-methoxy-8-(methoxymethyl)-1-azaspiro[4.5]dec-3-en-2-one], in the series on human ACC1 [5], the “Selectivity ACC1 vs. ACC2 (mean of the individual measurements ± standard deviation)” value is recorded as 47.0 ± 2.1; the “Ratio IC50s ACC2/ACC1” value is 49.0 and 44.9. Also, the IC50 on human ACC1 [6] is 165 nM and 146 nM. Also, in series [4], the CLblood was 0.083 mL/min/kg, the half-life was 79 h and the F is on record as 68%. In series [4] (iv), the clearance was 0.0333 mL/min/kg and the Vd is 0.29 L/kg. For the same compound, at human ACC2, the IC50 was 8080 nM and 6550 nM.

Take `CO[C@]1(C(F)(F)F)CC[C@]2(CC1)NC(=O)C(c1cc(-c3ccc(Cl)cc3)ccc1C)=C2O` [Example 1-1, (5r,8r)-3-(4′-Chloro-4-methylbiphenyl-3-yl)-4-hydroxy-8-methoxy-8-(trifluoromethyl)-1-azaspiro[4.5]dec-3-en-2-one]: the results for the AUC in series [1] (setting [7]) and in series [3] (setting [9]) were 289 µg·h/mL and 1160 µg·h/mL, respectively. The Deaths is 0 of 10 in the series with human PC-3 cells (80 mg/kg oral, 15 days); 0 of 4 in series [2] (12.5 mg/kg oral, 1 administration per day); 0 of 4 in series [2] (25 mg/kg oral, 1 administration per day); 1 of 4 in series [2] (50 mg/kg oral, 1 administration per day); 0 of 4 in series [2] (75 mg/kg oral, 1 administration per day); 0 of 4 in series [2] (setting [8]). In the series on human PC-3 cells (80 mg/kg oral, 15 days), this compound showed a T/C of 0.34. Further, the “tolerability (good: body weight change <=minus 10% and 100% survival)” value in the series on human PC-3 cells (80 mg/kg) is reported as “good tolerability”. Further, the MTD at 21 days in series [2] (21-day treatment, oral) is more than 100 mg/kg. Also, the clearance in series [3] was 0.0333 mL/min/kg; in series [4] (intravenous), 0.1 mL/min/kg. The compound also showed a CLblood in series [4] of 0.183 mL/min/kg. For the same compound, the Vd in series [4] (intravenous) came to 0.85 L/kg. The half-life in series [4] is 103 h. The F in series [4] is listed as 163%.

Regarding `COC[C@H]1CC[C@]2(CC1)NC(=O)C(c1cc(-c3ccc(Cl)c(F)c3)ccc1C)=C2O` [V.4-b, (5s,8s)-3-(4′-Chloro-3′-fluoro-4-methylbiphenyl-3-yl)-4-hydroxy-8-(methoxymethyl)-1-azaspiro[4.5]dec-3-en-2-one], the “Selectivity ACC1 vs. ACC2 (mean of the individual measurements ± standard deviation)” value with human ACC1 [5] came out at 15.2. In addition, the “Ratio IC50s ACC2/ACC1” value in the series on human ACC1 [5] came to 15.2. For the same compound, the IC50 at human ACC1 [6] worked out at 73 nM; at human ACC2 it was 1120 nM.

As for `CO[C@]1(C(F)(F)F)CC[C@]2(CC1)NC(=O)C(c1cc(-c3ccc(Cl)c(F)c3)ccc1C)=C2O` [Example 1-2, (5r,8r)-3-(4′-Chloro-3′-fluoro-4-methylbiphenyl-3-yl)-4-hydroxy-8-methoxy-8-(trifluoromethyl)-1-azaspiro[4.5]dec-3-en-2-one], the AUC in series [1] (dosage (mouse) 40 mg/kg 2 × per day) was 66 µg·h/mL; in series [1] (setting [7]), 156 µg·h/mL; in series [3] (from mouse dosage 40 mg/kg 2 × per day) it was 355 µg·h/mL; in series [3] (setting [9]), 842 µg·h/mL. Further, the Deaths with human PC-3 cells (40 mg/kg oral, 17 days) is listed as 0 of 9; with human PC-3 cells (80 mg/kg oral, 17 days) it was 0 of 9. In addition, the T/C was 0.44 in the series with human PC-3 cells (40 mg/kg oral, 17 days) and 0.28 with human PC-3 cells (80 mg/kg oral, 17 days). Also, the “tolerability (good: body weight change <=minus 10% and 100% survival)” value in the series with human PC-3 cells (40 mg/kg) and in the series on human PC-3 cells (80 mg/kg) was “good tolerability” throughout. The clearance is 0.15 mL/min/kg in series [3] and 0.483 mL/min/kg in series [4] (intravenous). The same compound returned a CLblood in series [4] of 0.65 mL/min/kg. In addition, the Vd in series [4] (intravenous) stood at 2.4 L/kg. For the same compound, the half-life in series [4] is 65 h. For the same compound, in series [4], the F is given as 131%.

By MTD is commonly meant the largest dose that counted as tolerated. Lower therefore signals poorer tolerability. For orientation: IC50 means the concentration that gives 50% inhibition.

(Values after US9278925B2, “Substituted 3-(biphenyl-3-yl)-4-hydroxy-8-methoxy-1-azaspiro[4.5]dec-3-en-2-one” (BAYER INTELLECTUAL PROPERTY GMBH, priority 2011, dated 2016).)
